Key:
[1] = system: NMDA receptor-mediated component of the EPSP; assay: Current clamp EPSP recording in CA1 pyramidal cells; type: cell-based, rat; conditions: 30 μM TFLLR, 30 nM thrombin
Method: (§1) Young rats (Sprague-Dawley, age P15-P20) or mice (C57/B16, age P14-19) were deeply anesthetized with isoflurane and decapitated. The brain was rapidly removed and submerged in an ice-cold oxygenated artificial cerebrospinal fluid (ACSF) comprised of 130 mM NaCl, 24 mM NaHCO3, 3.5 mM KCl, 1.25 mM NaH2PO4, 1 mM CaCl2,3 mM MgCl2, and 10 mM glucose saturated with 95% O2/5% CO2, at pH 7.4.
The hemisected brain was glued onto the stage of a vibrating microtome (Leica VT1000 S) and sections of 300 μm thickness were cut and stored in an incubation chamber at room temperature for about 1 h before use. […]
(§2) Synaptic responses were evoked by applying 0.1 ms current injection (1-100 μA) to a bipolar stimulating electrode placed in the stratum radiatum. Thrombin (Calbiochem) concentration was determined as described by Gingrich et al. (2000) using conversion of 1 U/ml=10 nM. […]
A series of current clamp experiments were carried out to directly measure the effects of PAR1 activation on the NMDA receptor-mediated component of the EPSP recorded in the presence of 1.5 mM Mg^2+. […]

PAR1−/− mouse astrocytes = assay: Fura-2 intracellular Ca2+ imaging in cultured PAR1−/− astrocytes; type: cell-based; conditions: 30 μM TFLLR, 30 nM thrombin, 10 μM ATP positive control
Method: Cultured astrocytes were prepared from P0-P3 postnatal mice obtained from KIST SPF. The cerebral cortex was dissected free of adherent meninges, minced, and dissociated into single cell suspension by trituration through a Pasteur pipette. All procedures involving the use of animals were reviewed and approved by the Emory University IACUC. Dissociated cells were plated onto either 12 mm glass coverslips or 6 well plates coated with 0.1 mg/ml poly-D-lysine. Cells were grown in a DMEM media (Gibco, cat# 11960-044) supplemented with 25 mM glucose, 10% heat-inactivated horse serum, and 10% heat-inactivated fetal bovine serum, 2 mM glutamine, and 1000 units/ml penicillin-streptomycin. Cultures were maintained at 37° C. in a humidified 5% CO2-containing atmosphere. Astrocyte cultures prepared in this way were previously determined by GFAP (glial fibrillary acidic protein) staining to be greater than 95% astrocytes (Nicole et al., 2005). In some experiments, the culture media was replaced 24 hours after plating with DMEM with all added components except glutamine, and cultures were maintained for 4 days before experimentation in glutamine-free media.
Cultured astrocytes were incubated with 5 µM Fura2-AM in […] pluronic acid (Molecular Probes) for 30 min at room temperature, and subsequently transferred to a microscope stage for imaging. […]

synaptic NMDA receptors = assay: Evoked NMDA EPSC current-voltage relationship in CA1 pyramidal cells; type: cell-based, rat; conditions: 30 nM thrombin, 0.2 mM Mg^2+
Method: as §1
Slices were placed on the stage of an upright microscope underneath a platinum and nylon restraining grid, and superfused with oxygenated ACSF at room temperature (23° C.), some experiments are performed at 34° C. by a temperature controller (TC-344B, Warner, Hamden). The standard ACSF recording solution was comprised of 130 mM NaCl, 24 mM NaHCO3, 3.5 mM KCl, 1.25 mM NaH2PO4, 1.5 mM CaCl2, 1.5 mM MgCl2, and 10 mM glucose saturated with 95% O2/5% CO2, at pH 7.4. […]
as §2
EPSCs were evoked by electrical stimulation of Schaffer collateral axons in the CA1 stratum radiatum, and recorded from CA1 pyramidal neurons under voltage clamp. […]

CA1 pyramidal cells = assay: Current clamp membrane potential of CA1 pyramidal cells in hippocampal slices; type: cell-based, rat; conditions: 30 nM thrombin
Method: as §1
The hemisected brain was glued onto the stage of a vibrating microtome (Leica VT1000 S) and sections of 300 μm thickness were cut and stored in an incubation chamber at room temperature for about 1 h before use. For voltage clamp experiments, the solution used to fill the electrodes was comprised of 140 mM Cs-MeSO4, 10 mM HEPES, 7 mM NaCl, 4 mM Mg-ATP, and 0.3 mM Na3-GTP; the solution for current clamp recordings was comprised of 140 mM K-MeSO4, 10 mM HEPES, 7 mM NaCl, 4 mM Mg-ATP, and 0.3 mM Na3-GTP, and supplemented with 1 mM QX314; and 1 mM QX314 was omitted from some current clamp recordings (e.g., FIG. 9e).
Slices were placed on the stage of an upright microscope underneath a platinum and nylon restraining grid, and superfused with oxygenated ACSF at room temperature (23° C.), some experiments are performed at 34° C. by a temperature controller (TC-344B, Warner, Hamden). The standard ACSF recording solution was comprised of 130 mM NaCl, 24 mM NaHCO3, 3.5 mM KCl, 1.25 mM NaH2PO4, 1.5 mM CaCl2, 1.5 mM MgCl2, and 10 mM glucose saturated with 95% O2/5% CO2, at pH 7.4. For some experiments 0.5-1 μM TTX, 10 μM NBQX, or 10-20 μM bicuculline were added to the extracellular solution, extracellular Mg^2+ was reduced to 5 μM, and/or extracellular Ca^2+ raised to 2 mM.
Visually guided whole-cell patch recordings were obtained from CA1 pyramidal neurons in a voltage clamp or current clamp configuration using an Axopatch 200A (Axon Instruments) and a borosilicate patch pipette of 5-7 MΩ resistance. […] Records were filtered at 5 kHz and digitized at 20 kHz using a Digidata 1200 A/D board.
Synaptic responses were evoked by applying 0.1 ms current injection (1-100 μA) to a bipolar stimulating electrode placed in the stratum radiatum. Thrombin (Calbiochem) concentration was determined as described by Gingrich et al. (2000) using conversion of 1 U/ml=10 nM. TFLLR and thrombin were applied by gravity perfusion at 1.0 ml/min, with extensive washing of perfusion lines, chamber, and objective between experiments to remove all residual thrombin, which has been reported to irreversibly cleave and PAR1 at a pM concentration. Removal of all thrombin ensured that PAR1 receptors were not pre-cleaved by residual thrombin prior to experimentation.

Substance: thrombin
- potentiation of synaptic NMDA component of EPSPs at 34° C. [1]: 120±6%
- intracellular Ca^2+ concentration in PAR1−/− astrocytes (PAR1−/− mouse astrocytes): did not cause an increase
- Mg^2+ block of NMDA EPSCs at −60 mV (synaptic NMDA receptors): significantly less Mg^2+ block
- membrane depolarization (CA1 pyramidal cells; 1.5 mM Mg^2+, n=22): 5.7±0.9 mV
- depolarization of the membrane potential at 23° C. (CA1 pyramidal cells; with or without APV 100 μM): 5.8±1.7 mV
- depolarization of the membrane potential at 34° C. (CA1 pyramidal cells; with or without APV 100 μM): 4.3±1.0 mV
